In ChEMBL document CHEMBL6134779, “Design of Proteolytic-Resistant Antifungal Peptides by Utilizing Minimum d-Amino Acid Ratios” (J Med Chem, 2024):
Converted amounts (≈) assume the structure as drawn. The source made the active and inactive calls. The rule behind the calls is not given here.

Key:
[1] = test system: Candida albicans; assay: Antifungal activity against Candida albicans CGMCC 2.2086 infected in C57BL/6 mouse keratitis model assessed as reduction in mycelia in the eyes at 5 mg/ml administered as 10 uL eye drop every 5 mins for first 1 hr and every 30 mins for next 7 hrs by Schiff staining based assay; format: functional, organism-based; conditions: route ou, time 8.0 hrs
[2] = Stability of the compound in MgCl2 assessed as change in secondary structure by CD spectra analysis; format: physicochemical
[3] = test system: Cell membrane; assay: Disruption of Candida albicans CGMCC 2.2086 cell membrane at 1X MIC measured after 1 hr by SYTO9/propidium iodide staining based fluorescence microscopic analysis; format: subcellular
[4] = Stability of the compound in FeCl3 assessed as change in secondary structure by CD spectra analysis; format: physicochemical
[5] = test system: Candida parapsilosis; assay: Antifungal activity against Candida parapsilosis CGMCC 2.3989 assessed as inhibition of fungal growth incubated for 48 hrs; format: functional; conditions: Lodderomyces parapsilosis
[6] = test system: Candida albicans; assay: Antifungal activity against Candida albicans CGMCC 2.2086 infected in C57BL/6 mouse keratitis model assessed as reduction in fungal cell count at 5 mg/ml administered as 10 uL eye drop every 5 mins for first 1 hr and every 30 mins for next 7 hrs relative to control; format: functional; set-up: scale not given: the % may be the effect or the level left; conditions: route ou, time 8 hrs
[7] = test system: Candida albicans; assay: Ratio of MIC95 for antifungal activity against Candida albicans CGMCC 2.2086 in presence of MgCl2 to MIC95 for MIC95 for antifungal activity against Candida albicans CGMCC 2.2086; format: functional
[8] = test system: Candida albicans; assay: Antifungal activity against Candida albicans SP3876 assessed as inhibition of fungal growth incubated for 48 hrs; format: functional
[9] = test system: Candida albicans; assay: Induction of morphological changes in Candida albicans CGMCC 2.2086 assessed as appearance of cell holes at 1X MIC measured after 60 mins by SEM analysis; format: functional, organism-based
[10] = test system: Candida albicans; assay: Antifungal activity against Candida albicans 56452 assessed as inhibition of fungal growth incubated for 48 hrs; format: functional
[11] = test system: Candida albicans; assay: Antifungal activity against Fluconazole-resistant Candida albicans 56214 assessed as inhibition of fungal growth incubated for 48 hrs; format: functional
[12] = Proteolytic stability of the compound assessed as trypsin (unknown origin)-mediated drug degradation measured after 8 hrs by 16.5% tricine-SDS-PAGE analysis; format: ADME; conditions: human
[13] = Stability of the compound in NH4Cl assessed as change in secondary structure by CD spectra analysis; format: physicochemical
[14] = test system: Candida albicans; assay: Induction of Candida albicans CGMCC 2.2086 cell wall permeabilization at 16 uM by NPN probe based assay relative to control; format: functional
[15] = Stability of the compound in KCl assessed as change in secondary structure by CD spectra analysis; format: physicochemical
[16] = Proteolytic stability of the compound assessed as trypsin (unknown origin)-mediated drug degradation measured after 8 hrs by RP-HPLC analysis; format: ADME; conditions: human
[17] = test system: Candida tropicalis; assay: Antifungal activity against Candida tropicalis CGMCC 2.1975 assessed as inhibition of fungal growth incubated for 48 hrs; format: functional
[18] = test system: Candida albicans; assay: Antifungal activity against Fluconazole-resistant Candida albicans 58288 assessed as inhibition of fungal growth incubated for 48 hrs; format: functional
[19] = test system: Candida albicans; assay: Induction of morphological changes in Candida albicans CGMCC 2.2086 assessed as cell content leakage at 1X MIC measured after 60 mins by TEM analysis; format: functional, organism-based
[20] = test system: Candida albicans; assay: Antifungal activity against Candida albicans 14936 assessed as inhibition of fungal growth incubated for 48 hrs; format: functional
[21] = test system: Candida albicans; assay: Antifungal activity against Candida albicans CGMCC 2.2086 assessed as inhibition of fungal growth incubated for 48 hrs in presence of FeCl3; format: functional
[22] = test system: Candida albicans; assay: Induction of Candida albicans CGMCC 2.2086 cell wall permeabilization by NPN probe based assay; format: functional, organism-based; conditions: dose 1-128 µM
[23] = test system: Candida albicans; assay: Antifungal activity against Candida albicans CGMCC 2.2086 infected in C57BL/6 mouse keratitis model assessed as increase in ocular transparency at 5 mg/ml administered as 10 uL eye drop every 5 mins for first 1 hr and every 30 mins for next 7 hrs; format: functional, organism-based; conditions: route ou, time 8.0 hrs
[24] = Proteolytic stability of the compound assessed as chymotrypsin (unknown origin)-mediated drug degradation measured after 8 hrs by RP-HPLC analysis; format: ADME; conditions: human
[25] = test system: Candida albicans; assay: Antifungal activity against Candida albicans CGMCC 2.2086 assessed as inhibition of fungal growth incubated for 48 hrs in presence of NaCl; format: functional
[26] = test system: Candida albicans; assay: Induction of ROS generation in Candida albicans CGMCC 2.2086 measured after 60 mins by […] dye based fluorescence assay; format: functional, organism-based; conditions: dose 0.5-128 µM
[27] = test system: Candida albicans; assay: Antibiofilm activity against Candida albicans CGMCC 2.2086 assessed as inhibition of biofilm formation at antifungal MIC measured after 48 hrs by crystal violet staining based assay; format: functional
[28] = test system: Candida albicans; assay: Antifungal activity against Candida albicans CGMCC 2.2086 assessed as inhibition of fungal growth incubated for 48 hrs in presence of ZnCl2; format: functional
[29] = Hemolytic activity in human red blood cells assessed as hemolysis rate at 512 uM incubated for 1 hr relative to control; format: toxicity, cell-based, Erythrocyte; conditions: read-out: Activity
[30] = Proteolytic stability of the compound assessed as protease K (unknown origin)-mediated drug degradation measured after 8 hrs by 16.5% tricine-SDS-PAGE analysis; format: ADME; conditions: human
[31] = Stability of the compound in NaCl assessed as change in secondary structure by CD spectra analysis; format: physicochemical
[32] = test system: Candida albicans; assay: Antifungal activity against Candida albicans CGMCC 2.2086 assessed as inhibition of fungal growth incubated for 48 hrs; format: functional
[33] = test system: Candida albicans; assay: Antifungal activity against Candida albicans CGMCC 2.2086 assessed as inhibition of fungal growth incubated for 2 to 4 hrs in presence of 100% serum; format: functional, organism-based; conditions: time 2-4 hrs
[34] = test system: Candida albicans; assay: Antifungal activity against Candida albicans CGMCC 2.2086 assessed as inhibition of fungal growth incubated for 2 hrs in presence of chymotrypsin; format: functional, organism-based
[35] = test system: Candida albicans; assay: Induction of morphological changes in Candida albicans CGMCC 2.2086 assessed as appearance of cell wrinkles at 1X MIC measured after 60 mins by SEM analysis; format: functional, organism-based
[36] = test system: Candida albicans; assay: Antifungal activity against Candida albicans CGMCC 2.2086 assessed as inhibition of fungal growth incubated for 48 hrs in presence of CaCl2; format: functional
[37] = test system: Candida albicans; assay: Antifungal activity against Candida albicans CGMCC 2.2086 assessed as inhibition of fungal growth incubated for 2 hrs in presence of trypsin; format: functional, organism-based
[38] = test system: Candida albicans; assay: Antifungal activity against Candida albicans CGMCC 2.2086 assessed as inhibition of fungal growth incubated for 2 hrs in presence of protease K; format: functional, organism-based
[39] = test system: HEK293; assay: Cytotoxicity against HEK293 cells assessed as reduction in cell viability at 128 uM incubated for 4 hrs by MTT assay; format: toxicity, cell-based; conditions: human, hek293, 4 h
[40] = test system: Candida albicans; assay: Antifungal activity against Candida albicans 17546 assessed as inhibition of fungal growth incubated for 48 hrs; format: functional
[41] = test system: Cell membrane; assay: Induction of cytoplasmic membrane depolarization in Candida albicans CGMCC 2.2086 at 0.5 to 2X MIC measured up to 3600 secs by DISC3-5 dye based fluorescence assay; format: subcellular; conditions: time <= 3600.0 sec
[42] = test system: HEK293; assay: Cytotoxicity against HEK293 cells assessed as cell death at 64 uM measured after 8 hrs by calcein-AM and propidium iodide Live/Dead dye staining assay; format: toxicity, cell-based; conditions: human, hek293, 8 h

What does the source list for `CC[C@H](C)[C@H](N)C(=O)N[C@H](C(=O)N[C@H](CCCNC(=N)N)C(=O)N[C@@H](CCCNC(=N)N)C(=O)N[C@@H](Cc1c[nH]cn1)C(=O)N[C@H](C(=O)N[C@H](C(=O)N[C@H](C(=O)N[C@H](C(=O)N[C@H](CCCNC(=N)N)C(=O)N[C@@H](CCCNC(=N)N)C(=O)N[C@@H](Cc1c[nH]cn1)C(=O)N[C@H](C(=O)N[C@H](C(=O)N[C@H](C(=O)N[C@H](C(=O)N[C@H](CCCNC(=N)N)C(=O)N[C@@H](CCCNC(=N)N)C(=O)N[C@@H](Cc1c[nH]cn1)C(=O)N[C@H](C(=O)N[C@H](C(N)=O)[C@@H](C)CC)[C@@H](C)CC)[C@@H](C)CC)[C@@H](C)CC)[C@@H](C)CC)[C@@H](C)CC)[C@@H](C)CC)[C@@H](C)CC)[C@@H](C)CC)[C@@H](C)CC)[C@@H](C)CC`?
Activity [1]: Active; Mycelia In The Eyes Was Either Absent Or Minimal; Stability [2]: Stable; Activity [3]: Active; Stability [4]: Stable; MIC95 [5]: 4 µM (≈ 10.9 µg/mL); Activity [6]: >65%; Ratio [7]: 4; MIC95 [8]: 2 µM (≈ 5.45 µg/mL); Activity [9]: Active; MIC95 [10]: 2 µM (≈ 5.45 µg/mL); MIC95 [11]: 4 µM (≈ 10.9 µg/mL); Stability [12]: Stable; Stability [13]: Stable; Activity [14]: >100%; Stability [15]: Stable; Stability [16]: Stable; MIC95 [17]: 2 µM (≈ 5.45 µg/mL); MIC95 [18]: 2 µM (≈ 5.45 µg/mL); Activity [19]: Active; MIC95 [20]: 4 µM (≈ 10.9 µg/mL); MIC95 [21]: 8 µM; Activity [22]: Dose-dependent-effect; Activity [23]: Active; Stability [24]: Stable; MIC95 [25]: 16 µM; Activity [26]: Dose-dependent-effect; inhibition (INH) [27]: 90%; MIC95 [28]: 4 µM; hemolysis at 1 h, 512 µM [29]: 40.8%; Stability [30]: Stable; Stability [31]: Unstable; MIC95 [32]: 4 µM (≈ 10.9 µg/mL); growth inhibition (GI) [33]: Active; No Alterations In The Antimicrobial Activity Was Observed In Presence Of Serum; Activity [34]: Active; Activity [35]: Active; MIC95 [36]: 8 µM; Activity [37]: Active; Activity [38]: Active; Activity [39]: Toxic; MIC95 [40]: 4 µM (≈ 10.9 µg/mL); Activity [41]: Active; Activity [42]: Toxic
